Data as given in US11464824B2, “Peptide capable of improving cognitive function” (THE FOOD SCIENCE INSTITUTE FOUNDATION, priority 2018, dated 2022).

Legend:
[1] = tested on: male dd Y mice fed a 60% high-fat diet; assay: Glucose tolerance test; assay type: in vivo; settings: YLG 10 mg/kg/day oral; for blood glucose level in the glucose tolerance test (relative value, level immediately before glucose = 100): day 7
Experimental: (§1) Twelve-week-old male dd Y mice were divided into 3 groups (n=8). The mice were reared for 1 week such that Group 1 was fed a normal diet (3.85 kcal/g: 20 kcal % of protein, 70 kcal % of carbohydrate, and 10 kcal % of lipid), and Group 2 and Group 3 were fed a 60% high-fat diet (5.24 kcal/g: 20 kcal % of protein, 20 kcal % of carbohydrate, and 60 kcal % of lipid). During the period, the YLG peptide was orally administered to Group 3 daily in an amount of 10 mg/kg/day.
On day 7 after the initiation of feeding, glucose (2 g/kg/p.o.) was administered after fasting for 5 hours. The administration of the YLG peptide on day 7 was performed 2 hours before the glucose administration. Blood was collected from the tail vein immediately before the glucose administration, and 15 minutes, 30 minutes, and 60 minutes after the administration to measure the blood glucose level using a glucose sensor (Nipro Corporation).
(§2) Tables 1 and 2 show changes in blood glucose level in the glucose tolerance test and changes in blood glucose level in the insulin tolerance test, respectively. The numerical values shown in each table are relative values, taking the blood glucose level immediately before the administration of glucose or insulin as 100.

[2] = tested on: BrdU-positive cells in the hippocampal dentate gyrus; assay: Hippocampal neurogenesis evaluation test using deoxyuridine bromide (BrdU); assay type: in vivo; settings: high-fat diet mice, YLG 10 mg/kg/day oral, day 7; FIG. 5
Experimental: as §1, with “Four-week-old” for “Twelve-week-old”, “(8 mice per group).” for “(n=8).”, “tripeptide” for “peptide”
(§3) On day 6 and day 7 after the initiation of feeding, two behavioral tests (episodic memory evaluation test: object recognition test (ORT), and a spatial memory evaluation test: object location test (OLT)), which are known as cognitive function evaluation systems, were performed, as well as a hippocampal neurogenesis evaluation test using deoxyuridine bromide (BrdU). On day 7, the brain hippocampus was removed, and a BDNF mRNA expression level in the hippocampus was measured.
On day 6 after the initiation of feeding, 100 mg/kg of deoxyuridine bromide (BrdU) was intraperitoneally administered to the mice of each group (n=4), and after 24 hours (day 7), perfusion fixation was performed using 4% paraformaldehyde. Next, the whole brain was extracted and frozen to prepare frozen sections on a cryostat. […]

[3] = reported in NPL 4; cited from earlier work
[4] = tested on: male dd Y mice fed a 60% high-fat diet; assay: Spatial memory evaluation test: object location test (OLT); assay type: in vivo; settings: YLG 10 mg/kg/day oral for 1 week, test on day 7, FIG. 4
Experimental: as §1, with “Four-week-old” for “Twelve-week-old”, “(8 mice per group).” for “(n=8).”, “tripeptide” for “peptide”
as §3
The OLT is a behavioral test that evaluates spatial memory, which is part of cognitive functions. […] The difference lies in that the location of only one object is changed in Trial 2. […] The cognitive function of the mice was evaluated using the ratio of the approach time for the object placed at the novel location to the total approach time for both objects as an index. […]

[5] = tested on: male dd Y mice fed a 60% high-fat diet; assay: Episodic memory evaluation test: object recognition test (ORT); assay type: in vivo; settings: YLG 10 mg/kg/day oral for 1 week, test on day 7, FIG. 2
Experimental: as §1, with “Four-week-old” for “Twelve-week-old”, “(8 mice per group).” for “(n=8).”, “tripeptide” for “peptide”
as §3
The ORT is a behavioral test that evaluates episodic memory, which is part of cognitive functions. […] First, the mouse was placed in a square open field for 5 minutes for habituation. […] In Trial 2, the approach time of the mouse for each object was measured. […] The cognitive function of the mice was evaluated using the ratio of the approach time for the novel object to the total approach time for both objects as an index. […]

[6] = tested on: BDNF mRNA expression in the hippocampus; assay: Brain-derived neurotrophic factor (BDNF) mRNA expression measurement test; assay type: in vivo; settings: high-fat diet mice, YLG 10 mg/kg/day oral, day 7, RT-PCR, standardized with β-actin mRNA; FIG. 6
Experimental: as §1, with “Four-week-old” for “Twelve-week-old”, “(8 mice per group).” for “(n=8).”, “tripeptide” for “peptide”
as §3
On day 7 after the initiation of feeding, the mice in each group (n=8) were dissected under anesthesia, and the hippocampus was removed from the brain. The removed hippocampus was stored in RNA later for RNA extraction. […] Then, the brain-derived neurotrophic factor (BDNF) mRNA expression level in the hippocampus was measured by RT-PCR according to a standard method. […]

[7] = tested on: male dd Y mice fed a 60% high-fat diet; assay: Insulin tolerance test; assay type: in vivo; settings: YLG 10 mg/kg/day oral; for blood glucose level in the insulin tolerance test (relative value, level immediately before insulin = 100): day 7
Experimental: As in the glucose tolerance test, twelve-week-old male dd Y mice were divided into 3 groups (n=6-7), and the mice were reared for 1 week such that Group 1 was fed a normal diet, and Group 2 and Group 3 were fed a 60% high-fat diet. During the period, the YLG peptide was orally administered to Group 3 daily in an amount of 10 mg/kg/day. On day 7 after the initiation of feeding, insulin (0.5 U/kg/i.p.) was administered after fasting for 5 hours. The administration of the YLG peptide on day 7 was performed 2 hours before the insulin administration. Blood was collected from the tail vein immediately before insulin administration, and 15 minutes, 30 minutes, and 60 minutes after the administration to measure the blood glucose level using a glucose sensor (Nipro Corporation).
as §2

## Tyr-Leu-Gly [YLG peptide]
[1]; 15 min after glucose 2 g/kg p.o.
  blood glucose level in the glucose tolerance test (relative value, level immediately before glucose = 100): 190 ± 14
[1]; 30 min after glucose 2 g/kg p.o.
  blood glucose level in the glucose tolerance test (relative value, level immediately before glucose = 100): 169 ± 10
[1]; 60 min after glucose 2 g/kg p.o.
  blood glucose level in the glucose tolerance test (relative value, level immediately before glucose = 100): 113 ± 5
[1]
  effect on the increase in blood glucose level caused by high-fat diet intake (glucose tolerance test, in words): prevented the increase in blood glucose level
[2]
  number of BrdU-positive cells in the hippocampal dentate gyrus (hippocampal neurogenesis): recovered to a level equal to that of the normal diet group
[3]
  anxiolytic effect: anxiolytic effect
[4]
  ratio of the approach time for the object placed at the novel location to the total approach time for both objects (OLT, spatial memory): recovered to a level equal to that of the normal diet group
[5]
  ratio of the approach time for the novel object to the total approach time for both objects (ORT, episodic memory): recovered to a level equal to that of the normal diet group
[6]
  BDNF mRNA expression level in the hippocampus: recovered to a level equal to or even greater than that of the normal diet group
[7]; 15 min after insulin 0.5 U/kg i.p.
  blood glucose level in the insulin tolerance test (relative value, level immediately before insulin = 100): 90 ± 2
[7]; 30 min after insulin 0.5 U/kg i.p.
  blood glucose level in the insulin tolerance test (relative value, level immediately before insulin = 100): 78 ± 3
[7]; 60 min after insulin 0.5 U/kg i.p.
  blood glucose level in the insulin tolerance test (relative value, level immediately before insulin = 100): 70 ± 4
[7]
  effect on insulin resistance induced by the high-fat diet (glucose and insulin tolerance tests, in words): improved insulin resistance induced by the high-fat diet
